These results are taken from patent US6172079A, “5-substituted-3-oxadiazolyl-1,6-naphthyridin-2(1H)-one derivatives” (Dainippon Pharmaceutical Co., Ltd., priority 1997, dated 2001).

For assay [1], the system named is GABAA receptor complex (TBPS binding). The experiment in a line: TBPS Binding Assay. The following applies: [35S]TBPS 0.4 nM, GABA 1 μM, rat cerebral cortex membrane, +% inverse agonistic, 0% antagonistic. On the set-up: species or system Wistar rats. How it is done:
The TBPS (t-butylbicyclophosphonothionate) binding assay and the preparation of the membrane specimen were done in a similar manner to the method of Biggio, G. et al. [cf. European Journal of Pharmacology, vol.
That is, to the cerebral cortex was added a 50-fold volume of an ice-cooled buffer (a 50 mM Tris-citrate buffer containing 100 mM sodium chloride, pH 7.4) and the mixture was homogenized at 0-4° C. and then centrifuged at 20,000 g for 20 minutes. The pellets thus obtained were once subjected to homogenization in a buffer and centrifugation by the same procedure as above and then kept in freezed state at -80° C. for more than 20 hours. On the test day, the freezed pellets were thawed and then subjected twice to the homogenization-centrifugation procedure as described above.
Subsequently, the filter was moved into a liquid scintillation vial and thereto was added a liquid scintillation cocktail (ACS-II, manufactured by Amersham, USA, 10 ml) and allowed to stand for a fixed period of time. […] Separately, the same procedures were repeated in the presence of Picrotoxin to determine the non-specific binding amount. The non-specific binding amount was deducted from the total binding amount to give the specific binding amount. The binding activity of the test compound was calculated by a variation rate, i.e., a rate of the specific binding amount of the test compound to the specific binding amount in control (using a solvent).

Assay [2] has as its system ddY male mice (pentylentetrazol-induced convulsion). The assay can be described thus: Test of Increasing Activity on Pentylentetrazol-induced Convulsion. As to conditions: Mus musculus, 0.5 h, po, pentylentetrazol 70 mg/kg s.c. 15 min later, read-out: Effects (number of animals) with increased pentylentetrazol-induced convulsion (converted). The class given is in vivo. How it is done:
It is known that benzodiazepine receptor inverse agonists increase convulsion induced by pentylentetrazol [cf. Progress in Neuro-Psychopharmacology and Biological Psychiatry, vol. […] Some compounds of the present invention were tested as to the activities of increasing the pentylentetrazol-induced convulsion.
A test compound (compounds disclosed in working examples) was orally administered to ddY male mice (weight; 22-25 g, five mice/group) in an amount of 5-100 mg/kg. […] The effects were evaluated by the number of mice among five mice, of which the convulsion increasing effects were observed.

Assay [3] has as its target benzodiazepine receptor. The assay can be described thus: Benzodiazepine Receptor Binding Assay. The following applies: read-out: BZP-receptor Binding IC50; [3H]-diazepam 1.5 nM; rat brain crude synaptosome membrane; 0° C., 20 min.
For assay [4], the system named is GABAA receptor. The following applies: background statement; cited from earlier work.

Structures are written as SMILES.

Usually IC50 stands for the concentration that inhibits the measured activity by half.

For the compound `CCc1noc(-c2cc3c(-c4ccncc4)nccc3[nH]c2=O)n1` [Example 213, 3-(3-Ethyl-1,2,4-oxadiazol-5-yl)-5-(4-pyridyl)-1,6-naphthyridin-2(1H)-one], the “TBPS binding Variation Rate” value in assay [1] is 26%. In assay [2], the responders at 10 mg/kg was 100%. Moreover, the IC50 in assay [3] turned out to be 2.07 nM.

In the case of `CCc1nc(-c2cc3c(C4CC4C)nccc3[nH]c2=O)no1` (stereo not drawn) [Example 18, 3-(5-Ethyl-1,2,4-oxadiazol-3-yl)-5-(2-methylcyclopropyl)-1,6-naphthyridin-2(1H)-one], in assay [1], the “TBPS binding Variation Rate” value is on record as 10%. The responders at 20 mg/kg in assay [2] is 60%. Also, in assay [3], the half-maximal inhibitory concentration (IC50) turned out to be 2.04 nM.

In the case of `Cc1ccc(-c2nccc3[nH]c(=O)c(-c4nc(C)no4)cc23)cc1` [Example 184], in assay [1], the “TBPS binding Variation Rate” value is recorded as 17%. For the same compound, the responders at 50 mg/kg in assay [2] is 100%.

`COc1ccc(-c2nccc3[nH]c(=O)c(-c4noc(C)n4)cc23)cc1` [Example 11, 3-(5-Methyl-1,2,4-oxadiazol-3-yl)-5-(4-methoxyphenyl)-1,6-naphthyridin-2(1H)-one]: the “TBPS binding Variation Rate” value in assay [1] worked out at 21%. For the same compound, the responders at 10 mg/kg in assay [2] is 80%. The IC50 in assay [3] was 9.77 nM.

`CCc1noc(-c2cc3c(C)nccc3[nH]c2=O)n1` [Example 191, 3-(3-Ethyl-1,2,4-oxadiazol-5-yl)-5-methyl-1,6-naphthyridin-2(1H)-one]: in assay [1], the “TBPS binding Variation Rate” value is reported as 18%. In assay [2], the responders at 10 mg/kg was 100%.

Take `COc1cccc(-c2nccc3[nH]c(=O)c(-c4nc(C)no4)cc23)c1` [Example 186, 3-(3-Methyl-1,2,4-oxadiazol-5-yl)-5-(3-methoxyphenyl)-1,6-naphthyridin-2(1H)-one]: the “TBPS binding Variation Rate” value in assay [1] is 21%. In addition, in assay [2], the responders at 50 mg/kg is 80%. Moreover, the IC50 in assay [3] worked out at 1.55 nM.

`NCc1cc(=O)[nH]o1` [Muscimol]: in assay [4], the “uptake of Cl ion into cells” value was “decreased”.

Take `Cc1nc(-c2cc3c(-c4cccc(F)c4)nccc3[nH]c2=O)no1` [Example 5]: the “TBPS binding Variation Rate” value in assay [1] is 21%. In addition, the responders at 5 mg/kg in assay [2] (5 mg/kg) is 100%. Moreover, the half-maximal inhibitory concentration (IC50) in assay [3] is 1.64 nM.

As for `CNC(=O)c1cc2c(cn1)[nH]c1ccccc12` [FG7142, N-methyl-β-carboline-3-carboxamide], the “uptake of Cl ion into cells” value in assay [4] was “increased”.

Regarding `CCc1nc(-c2cc3c(-c4ccsc4)nccc3[nH]c2=O)no1` [Example 105], in assay [1], the “TBPS binding Variation Rate” value was 25%. For the same compound, the responders at 50 mg/kg in assay [2] is 80%. In addition, the IC50 in assay [3] was determined as 1.08 nM.

Consider `CCc1noc(-c2cc3c(-c4cccc(F)c4)nccc3[nH]c2=O)n1` [Example 200, 3-(3-Ethyl-1,2,4-oxadiazol-5-yl)-5-(3-fluorophenyl)-1,6-naphthyridin-2(1H)-one], for which the “TBPS binding Variation Rate” value in assay [1] was determined as 17%. Besides, in assay [2], the responders at 50 mg/kg was 80%. Also, in assay [3], the half-inhibitory concentration (IC50) is 0.92 nM.

Consider `CCc1nc(-c2cc3c(-c4ccco4)nccc3[nH]c2=O)no1` [Example 102], for which the “TBPS binding Variation Rate” value in assay [1] turned out to be 33%. Moreover, the responders at 10 mg/kg in assay [2] was 100%. The IC50 in assay [3] is 0.81 nM.

With `CCCc1nccc2[nH]c(=O)c(-c3nc(CC)no3)cc12` [Example 192], the “TBPS binding Variation Rate” value in assay [1] was 13%. Further, the responders at 100 mg/kg in assay [2] was 100%. The IC50 in assay [3] was found to be 4.22 nM.

With `Cc1nc(-c2cc3c(-c4ccncc4)nccc3[nH]c2=O)no1` [Example 94, 3-(5-Methyl-1,2,4-oxadiazol-3-yl)-5-(4-pyridyl)-1,6-naphthyridin-2(1H)-one], the “TBPS binding Variation Rate” value in assay [1] stood at 34%. In assay [2], the responders at 50 mg/kg was 80%. The IC50 in assay [3] came out at 4.49 nM.

In the case of `Cc1nc(-c2cc3c(-c4ccccc4)nccc3[nH]c2=O)no1` [Example 4], the “TBPS binding Variation Rate” value in assay [1] came to 20%. For the same compound, the responders at 10 mg/kg in assay [2] is 80%. Further, the half-maximal inhibitory concentration (IC50) in assay [3] is 1.65 nM.

Take `O=c1[nH]c2ccnc(-c3ccsc3)c2cc1-c1nc(C2CC2)no1` [Example 247, 3-(3-Cyclopropyl-1,2,4-oxadiazol-5-yl)-5-(3-thienyl)-1,6-naphthyridin-2(1H)-one]: the “TBPS binding Variation Rate” value in assay [1] is reported as 16%. The responders at 50 mg/kg in assay [2] was 80%. For the same compound, in assay [3], the half-inhibitory concentration (IC50) stood at 1.39 nM.

Regarding `Cc1nc(-c2cc3c(-c4ccccc4C)nccc3[nH]c2=O)no1` [Example 89, 3-(5-Methyl-1,2,4-oxadiazol-3-yl)-5-(2-methylphenyl)-1,6-naphthyridin-2(1H)-one], the “TBPS binding Variation Rate” value in assay [1] is on record as 22%. Further, in assay [2], the responders at 50 mg/kg is 100%. Further, in assay [3], the IC50 came to 10.5 nM.

Consider `CCc1noc(-c2cc3c(-c4ccc(OC)cc4)nccc3[nH]c2=O)n1` [Example 210, 3-(3-Ethyl-1,2,4-oxadiazol-5-yl)-5-(4-methoxyphenyl)-1,6-naphthyridin-2(1H)-one], for which the “TBPS binding Variation Rate” value in assay [1] was found to be 15%. For the same compound, the responders at 10 mg/kg in assay [2] was 80%. Further, in assay [3], the 50% inhibitory concentration (IC50) is 3.41 nM.

As to `COc1cccc(-c2nccc3[nH]c(=O)c(-c4noc(C)n4)cc23)c1` [Example 86, 3-(5-methyl-1,2,4-oxadiazol-3-yl)-5-(3-methoxyphenyl)-1,6-naphthyridin-2(1H)-one], the “TBPS binding Variation Rate” value in assay [1] was 12%. For the same compound, in assay [2], the responders at 10 mg/kg was 40%. Moreover, in assay [3], the IC50 was found to be 2.21 nM.

For `O=C1CN=C(c2ccccc2Cl)c2cc([N+](=O)[O-])ccc2N1` [chlonazepam], in assay [4], the “uptake of Cl ion into cells” value is “decreased”.

Turning to `CCc1nc(-c2cc3c(-c4cccs4)nccc3[nH]c2=O)no1` [Example 103, 3-(5-Ethyl-1,2,4-oxadiazol-3-yl)-5-(2-thienyl)-1,6-naphthyridin-2(1H)-one], the “TBPS binding Variation Rate” value in assay [1] worked out at 21%. The responders at 10 mg/kg in assay [2] was 40%. The IC50 in assay [3] is 0.83 nM.

Take `Cc1nc(-c2cc3c(-c4ccccc4Cl)nccc3[nH]c2=O)no1` [Example 88]: the “TBPS binding Variation Rate” value in assay [1] is recorded as 41%. Moreover, the responders at 10 mg/kg in assay [2] is 100%. For the same compound, in assay [3], the IC50 was 4.63 nM.

Regarding `Cc1nc(-c2cc3c(-c4ccc(F)cc4)nccc3[nH]c2=O)no1` [Example 6], in assay [1], the “TBPS binding Variation Rate” value is given as 15%. The responders at 100 mg/kg in assay [2] was 80%. In addition, in assay [3], the IC50 was determined as 2.98 nM.

Regarding `CCc1nc(-c2cc3c(-c4ccccc4F)nccc3[nH]c2=O)no1` [Example 95], the “TBPS binding Variation Rate” value in assay [1] was determined as 13%. The half-inhibitory concentration (IC50) in assay [3] was 1.09 nM.

Turning to `CCc1noc(-c2cc3c(-c4cccs4)nccc3[nH]c2=O)n1` [Example 173, 3-(3-ethyl-1,2,4-oxadiazol-5-yl)-5-(2-thienyl)-1,6-naphthyridin-2(1H)-one], the “TBPS binding Variation Rate” value in assay [1] is 18%. Further, the responders at 20 mg/kg in assay [2] was 100%. The IC50 in assay [3] turned out to be 0.94 nM.

Turning to `CC(C)c1nccc2[nH]c(=O)c(-c3nc(C4CC4)no3)cc12` [Example 233], the “TBPS binding Variation Rate” value in assay [1] was 31%. Besides, the IC50 in assay [3] stood at 1.58 nM.

`CCc1noc(-c2cc3c(CC(C)C)nccc3[nH]c2=O)n1` [Example 196]: the “TBPS binding Variation Rate” value in assay [1] is -9%. In addition, the IC50 in assay [3] came to 4.6 nM.

As for `CCCc1noc(-c2cc3c(-c4ccco4)nccc3[nH]c2=O)n1` [Example 220], in assay [2], the responders at 20 mg/kg is 80%. The IC50 in assay [3] turned out to be 0.93 nM.

For the compound `CCc1nc(-c2cc3c(C(C)C)nccc3[nH]c2=O)no1` [Example 16], the “TBPS binding Variation Rate” value in assay [1] is reported as 38%. Further, the IC50 in assay [3] came to 3.69 nM.

Take `Cc1nc(-c2cc3c(-c4ccccc4F)nccc3[nH]c2=O)no1` [Example 87]: the “TBPS binding Variation Rate” value in assay [1] stood at 32%. Moreover, the IC50 in assay [3] worked out at 2.35 nM.

On to `Cc1cccc(-c2nccc3[nH]c(=O)c(-c4nc(C)no4)cc23)c1` [Example 183, 3-(3-Methyl-1,2,4-oxadiazol-5-yl)-5-(3-methylphenyl)-1,6-naphthyridin-2(1H)-one], for which the “TBPS binding Variation Rate” value in assay [1] is 8%. Further, the responders at 20 mg/kg in assay [2] is 80%. Further, the IC50 in assay [3] was 1.55 nM.

With `O=c1[nH]c2ccnc(-c3ccccc3)c2cc1-c1noc(C2CC2)n1` [Example 52], the “TBPS binding Variation Rate” value in assay [1] is -11%. In assay [3], the IC50 came out at 0.74 nM.
